Results: patent publication US6991804B2, “Delivery systems for periadventitial delivery for treatment of restenosis and anastomotic intimal hyperplasia” (Edwards Lifesciences Corporation, priority 2000, dated 2006)
Marks after values point to notes of the source that are not given here.

Tests used:
Carotid Vein Grafts = assay: Carotid vein grafts (femoral vein interposition, end-to-side anastomoses): percent stenoses of anastomoses by angiography; type: in vivo, Dogs
Method: The animal was heparinized (100 IU/kg body weight), and anticoagulated at the surgeon's discretion with additional heparin. The carotid artery was cross-clamped and transected. An interpositional graft with end-to-side anastamoses of the femoral vein to the carotid artery was performed. Anastomoses were identified with a surgical staple. Where indicated, the test or control articles were applied to a uniform thickness and allowed to harden. Grafts were placed in both carotid arteries, with the procedures done in series.
Image analysis was performed by a qualified vascular surgeon who also analyzed the data. REF Images from angiography were captured on a VHS tape. Digital images were captured from this tape and saved after which they were evaluated using NIH Image. The lumenal width of the native arterial segments proximal and distal to the vein grafts, and the proximal and distal anastomoses were measured. The percent stenoses of the anastomoses relative to the adjacent native arterial segment were reported.
Images were captured as described in section above, and were evaluated by NIH Image. The lumenal width of native arterial segments proximal and distal to the graft and the proximal and distal anastomoses were measured.

[1] = tested on: Balloon-injured Femoral Arteries; assay: Balloon-injured femoral arteries: morphometric analysis of histology (media, intima, lumen area); type: in vivo, Dogs
Method: (§1) Balloon injury to the femoral arteries by three sequences of inflation and removal of a 4 Fr. Fogarty catheter generated 5 cm lesions in each femoral artery that were or were not treated with test/control articles. Injured areas were tagged with a staple. The insertion site was repaired and the animal was closed.
Carotid arteries were exposed and the healing response was evaluated. The grafts, including anastomoses, were fixed under pressure in situ, and were removed along with 4 cm of proximal and distal host vessel. Femoral arteries were exposed and the healing response was observed. The femoral arteries were then fixed under pressure and removed with distal and proximal host tissue. Femoral and carotid arteries were stored in 10% neutral-buffered formalin until analysis by histology. Specimens for histological evaluation were processed and stained with Hematoxalin and Eosin and with Mallory's Trichrome by IDEXX Veterinary Services, West Sacramento, Calif.
Histology of the femoral arteries was analyzed with Adobe Photoshop. Briefly, (1) the lumen-vessel interface, (2) the internal elastic lamina, and (3) the external elastic lamina were traced on digital images from H&E stained tissue with the greatest amount of hyperplasia. The intimal area was determined by subtracting the area encompassing […]. The medial area was determined by subtracting the area encompassing (2) from (3). The area was measured as (1).
Histology of sections from areas spanning proximal and distal regions of the balloon-injured femorals and of native tissue proximal to the arteriotomy were evaluated by morphometric analysis as described above.

[2] = post-surgery
Method: Animals received standard laboratory diet proscribed in QCOP B618, with supplements provided at the discretion of a veterinarian; water was available ad libitum.
Post-operative care was performed as described in QCOP B809, along with prophylactic administration of antibiotics (Sulfamethoxaxole and Trimethoprin); analgesics were supplied as described in QCOP B803. 7 days post surgery, animals received 250 mg/day aspirin. The wound site was debrided and temperature, heart rate and respiratory rates were monitored daily the week following surgery. Angiography of the carotid sites was performed following surgery and monthly thereafter. Intravascular ultrasound (IVUS) was used to examine the vein grafts in 10 animals at the 12 week endpoint of the study.

[3] = tested on: Balloon-injured Femoral Arteries; assay: Balloon-injured femoral arteries: lumenal width by angiography; type: in vivo, Dogs; settings: 12 weeks
Method: as §1
Angiography of the femoral arteries was performed at the termination of the experiment. Images were captured as described above and analyzed using NIH Image. Injured areas were identified by radio-opaque clips, and by anatomy. The lumenal widths of the arterial segments were measured just distal to the arteriotomy, and in the mid- and distal portions of the injured segments. The percent stenoses of the anastomoses relative to the adjacent native arterial segment were reported. The mean and least values were reported.
Images from angiography were captured and analyzed as described previously. The lumenal widths of the arterial segments were measured immediately distal to the arteriotomy, and in the mid- and distal portions of the injured segments.

[4] = angiography, 12 weeks, pooled Paclitaxel groups (4 dogs, 8 vessels)
[5] = histology, 12 weeks, pooled Paclitaxel groups (4 dogs, 8 vessels)
[6] = pooled Paclitaxel groups (4 dogs, 8 vessels)

SMILES: CC(=O)O[C@H]1C(=O)[C@@]2(C)[C@H]([C@H](OC(=O)c3ccccc3)[C@]3(O)C[C@H](OC(=O)[C@H](O)[C@@H](NC(=O)c4ccccc4)c4ccccc4)C(C)=C1C3(C)C)[C@]1(OC(C)=O)CO[C@@H]1C[C@@H]2O [Paclitaxel ®, paclitaxel]
- Stenosis at anastomotic sites of carotid grafts (statement in words) (Carotid Vein Grafts; angiography at the 12 week endpoint): limited stenosis at the proximal and distal anastomotic sites
- Per Cent Stenoses of Carotid Grafts ± Paclitaxel, Distal Anastomotic Site (mean ± s.d.) (Carotid Vein Grafts; [4]): 1.1 ± 2.2%
- Per Cent Stenoses of Carotid Grafts ± Paclitaxel, Proximal Anastomotic Site (mean ± s.d) (Carotid Vein Grafts; [4]): 5.9 ± 6.5%
- Intima area of femoral artery in regions of intimal hyperplasia ± Paclitaxel (Mean ± s.d.) [1, 5]: 1.95 ± 1.00 mm^2
- Intima: Media Ratio ± Paclitaxel [1, 5]: 0.56 ± 0.23
- Lumen area of femoral artery in regions of intimal hyperplasia ± Paclitaxel (Mean ± s.d) [1, 5]: 4.98 ± 1.05* mm^2
- Media area of femoral artery in regions of intimal hyperplasia ± Paclitaxel (Mean ± s.d.) [1, 5]: 3.38 ± 0.84 mm^2
- Change in intimal: medial ratio (statement in words) ([1]; morphometric analysis of histology, femoral sections): absence of changes
- Larger lumen width versus no Paclitaxel ([1]; morphometric analysis of histology, femoral sections with largest stenotic response, p</=0.06): 44%
- Subcutaneous hematomas at the carotid site (animals affected/animals) ([2]; lesions resolved with time): 4/8
- Hematoma at the femoral site (animals affected/animals) ([2]; reduced in size with time and healed well): 2/8
- Difference between control, vehicle and Paclitaxel treatment groups in femoral lumenal width (statement in words) [3]: no significant difference
- Least Lumenal Width of Balloon-Injured Segments Relative to Native Vessel ± Paclitaxel (Mean ± s.d) [3, 6]: 1.32 ± 0.47 mm
- Men Lumenal Width of Balloon-Injured Segments Relative to Native Vessel ± Paclitaxel (Mean ± s.d.) [3, 6]: 1.52 ± 0.24 mm
